Reference: patent US20130324522A1, “INSECT ODORANT RECEPTOR ANTAGONISTS” (THE ROCKEFELLER UNIVERSITY, priority 2010, published 2013)
pIC50: −log10 of the molar value. Where two headings read alike, the source gives them in different places.

Experiments:
[1] = biological target: T1, TRP channel (TRPM8) (Mus musculus, UniProt Q8R4D5); assay: Ca2+-imaging of stable HEK293T cell line TRPM8; format: cell-based; details: for pIC50: ligand menthol 300 μM, read-out: IC50 TRPM8; for inhibition at 4 µM: HEK-293T, compound applied at 4 μM, read-out: Percent Inhibition TRPM8
T1 construct: Full-length cDNAs for mosquito (Anopheles gambiae) odorant receptor (OR1, OR2, OR7, OR8, OR28), and fly (Drosophila melanogaster) odorant receptor (Or47a, Or83b), mouse TRP channel (TRPM8); expressed in transfected cells
T1 sequence (Q8R4D5 whole entry): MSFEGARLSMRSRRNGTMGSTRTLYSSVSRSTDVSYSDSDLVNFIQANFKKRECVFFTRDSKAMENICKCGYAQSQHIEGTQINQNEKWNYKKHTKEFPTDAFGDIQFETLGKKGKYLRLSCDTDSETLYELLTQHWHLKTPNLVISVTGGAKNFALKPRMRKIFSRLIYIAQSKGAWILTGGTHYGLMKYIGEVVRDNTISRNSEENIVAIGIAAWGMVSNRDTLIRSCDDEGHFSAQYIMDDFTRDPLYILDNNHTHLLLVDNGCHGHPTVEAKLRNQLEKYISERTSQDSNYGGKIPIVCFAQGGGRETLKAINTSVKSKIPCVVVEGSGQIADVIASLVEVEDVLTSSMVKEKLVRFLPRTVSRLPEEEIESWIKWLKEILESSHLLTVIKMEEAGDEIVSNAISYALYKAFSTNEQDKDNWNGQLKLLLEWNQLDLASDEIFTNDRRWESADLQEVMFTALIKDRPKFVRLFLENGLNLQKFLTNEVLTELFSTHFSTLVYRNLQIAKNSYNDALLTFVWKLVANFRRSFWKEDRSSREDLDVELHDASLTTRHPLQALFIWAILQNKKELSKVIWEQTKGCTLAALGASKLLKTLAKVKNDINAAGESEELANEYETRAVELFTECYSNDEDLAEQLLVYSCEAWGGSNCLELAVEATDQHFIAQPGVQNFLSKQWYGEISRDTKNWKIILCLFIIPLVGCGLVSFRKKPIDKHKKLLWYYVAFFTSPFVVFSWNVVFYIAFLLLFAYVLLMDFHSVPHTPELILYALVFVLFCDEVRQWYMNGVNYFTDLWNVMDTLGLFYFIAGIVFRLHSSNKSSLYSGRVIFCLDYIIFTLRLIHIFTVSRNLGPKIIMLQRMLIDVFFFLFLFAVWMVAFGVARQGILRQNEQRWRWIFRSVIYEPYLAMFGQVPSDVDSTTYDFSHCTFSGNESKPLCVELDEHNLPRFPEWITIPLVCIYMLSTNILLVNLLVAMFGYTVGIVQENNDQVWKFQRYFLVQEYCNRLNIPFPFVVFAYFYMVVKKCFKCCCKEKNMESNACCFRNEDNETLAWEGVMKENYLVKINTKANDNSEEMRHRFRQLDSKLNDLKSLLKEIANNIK
Protocol: (§1) Full-length cDNAs for mosquito (Anopheles gambiae) odorant receptor (OR1, OR2, OR7, OR8, OR28), and fly (Drosophila melanogaster) odorant receptor (Or47a, Or83b), mouse TRP channel (TRPM8), and mouse serotonin receptor (5HT3) were obtained and subcloned into mammalian expression vectors. The following mammalian expression vectors were used:
Stable cell lines OR1/OR7, OR2/OR7, OR8/OR7, OR10/OR7, OR28/OR7 and TRPM8 were generated from HEK293T cells. HEK293T-based cell lines were cultured in DMEM supplemented with these additional antibiotics: 6 μg/mL blasticidin and 1 μg/mL puromycin, with the exception of the TRPM8 cell lines, which was cultured in DMEM supplemented with 1 μg/mL puromycin.
Cells were trypsinized and split into 35 mm dishes one day before transfection. Confluent cells (60-70%) in 35 mm dishes were transfected with 1 μg of insect OR(X) plasmids in pME18s-bla and 1 μg of OR7-pME18s-puro using lipofectamine 2000. For Anopheles odorant receptors, two plasmids were co-transfected into HEK cells: the ligand-specific receptor (OR1, OR2, OR8, OR28) and the corresponding olfactory co-receptor: OR7. Cell lines containing TRPM8 were transfected with single plasmid.
(§2) Stable cell lines were cultured in 10 cm dishes, and confluent cells (70-80%) were trypsinized. 10,000 cells/20 μL were transferred into each well of 384-well plates coated with poly-D-lysine, and cultured for 2 days. For Flip-In T-Rex cells (cell lines expressing Or47a/Or83b and 5HT3), 5 μL of tetracycline (5 μg/mL) were added 1 day before the assay. 20 μL of Ca-4 dye was loaded into each well for 1.5 hr at room temperature in the dark, and the dye-loaded plates were subjected to Ca^2+-imaging using a Hamamatsu FDSS6000 real time fluorescence plate reader. Odorant solutions (9× final concentration) were prepared by dissolving 1M stock solutions into Hank's Buffered Salt Solution (HBSS), and 30 μL of odor solution was transferred to each well in 384-well plates.
(§3) Compounds ([…] in DMSO) were stored in 384-well plates, and last two columns (32 wells total) contained only DMSO. 200 nL of small compounds were transferred into the odorant plates before the assay using the Perkin-Elmer Janus workstation. The odorant plates were spun down to remove air bubbles, and placed on the FDSS6000 plate loader, and 5 μL of odorant solution was applied to the cell plate on the FDSS6000. Ca^2+ increase was monitored with fluorescence at 525 nm by excitation at 485 nm.

[2] = biological target: T2, Or47a/Or83b (Drosophila melanogaster, UniProt P81921+Q9VNB5); assay: Ca2+-imaging of stable Flip-In T-Rex cell line Or47a/Or83b; format: cell-based; details: for inhibition at 4 µM: compound applied at 4 μM, read-out: Percent Inhibition OR47a OR83b
T2 construct: Full-length cDNAs for mosquito (Anopheles gambiae) odorant receptor (OR1, OR2, OR7, OR8, OR28), and fly (Drosophila melanogaster) odorant receptor (Or47a, Or83b); expressed in transfected cells
T2 sequence (P81921 1-385): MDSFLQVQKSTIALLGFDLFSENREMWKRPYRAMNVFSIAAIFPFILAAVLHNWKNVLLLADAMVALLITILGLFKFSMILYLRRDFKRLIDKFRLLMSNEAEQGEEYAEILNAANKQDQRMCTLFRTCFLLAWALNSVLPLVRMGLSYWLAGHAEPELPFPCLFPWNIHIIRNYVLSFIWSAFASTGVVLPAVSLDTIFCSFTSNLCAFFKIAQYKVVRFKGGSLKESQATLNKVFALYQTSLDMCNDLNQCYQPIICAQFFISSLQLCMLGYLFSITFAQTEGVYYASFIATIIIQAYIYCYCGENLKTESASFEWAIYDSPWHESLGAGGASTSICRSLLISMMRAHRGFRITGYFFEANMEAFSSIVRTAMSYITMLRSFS
T2 sequence (Q9VNB5 1-486): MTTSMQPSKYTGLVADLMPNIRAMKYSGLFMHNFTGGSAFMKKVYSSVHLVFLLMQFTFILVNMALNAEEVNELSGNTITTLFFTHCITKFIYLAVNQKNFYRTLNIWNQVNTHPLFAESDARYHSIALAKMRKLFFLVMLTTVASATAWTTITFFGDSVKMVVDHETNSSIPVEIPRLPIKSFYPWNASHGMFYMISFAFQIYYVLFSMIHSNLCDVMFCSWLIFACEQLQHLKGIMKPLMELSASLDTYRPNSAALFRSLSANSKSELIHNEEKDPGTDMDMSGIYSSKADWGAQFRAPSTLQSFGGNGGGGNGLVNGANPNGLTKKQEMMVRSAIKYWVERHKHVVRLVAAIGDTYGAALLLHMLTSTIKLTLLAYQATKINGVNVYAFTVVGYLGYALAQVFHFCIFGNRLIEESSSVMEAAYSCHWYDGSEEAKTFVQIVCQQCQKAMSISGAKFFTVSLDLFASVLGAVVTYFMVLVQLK
Protocol: as §1
Stable cell lines Or47a/Or83b and 5HT3 were generated from Flip-In T-Rex cells. Flip-In T-Rex-based cell lines were cultured in DMEM supplemented with these additional antibiotics: 6 μg/mL blasticidin and 100 μg/mL hygromycin.
Cells were trypsinized and split into 35 mm dishes 1 day before transfection. Confluent cells (60-70%) in 35 mm dishes were co-transfected with 1 μg of Or47a/Or83b plasmid in pcDNA5/FRT/TO/IRES plus the pOG44 plasmid or 1 μg of 5HT3 plasmid in pcDNA5/FRT/TO plus the pOG44 plasmid using lipofectamine 2000. Co-transfection of pOG44 and pcDNA5/FRT/TO/IRES or pcDNA5/FRT/TO allows expression of Flp recombinase and integration of the pcDNA5 plasmid into the genome via the FRT site. After one day of incubation, the transfected cells were transferred into 10 cm dishes with DMEM containing antibiotics: 20 μg/mL of hygromycin and 6 μg/mL of blasticidin. The concentration of Hygromycin was increased to 100 μg/mL when the population of cells became 30-40% confluent. The cells were cultured by changing medium every two days until cell clumps appeared. The clumps were picked and transferred into 96 well plates with DMEM containing 100 μg/mL of Hygromycin and 6 μg/mL of blasticidin. The cells were grown and transferred to 24 well plates, and ligand-evoked calcium increases were tested using the Hamamatsu FDSS6000 real time fluorescence plate reader.
as §2, §3

[3] = ligand pentyl acetate 30 μM, read-out: IC50 OR47a OR83b

| SMILES | pIC50 [1] | pIC50 [2, 3] | inhibition at 4 µM [1] [%] | pIC50 ([2]; Table B, read-out: IC50 OR47a) | inhibition at 4 µM [2] [%] |
| --- | --- | --- | --- | --- | --- |
| CCNc1nc(NC(C)C)nc(SC)n1 [RU-T3] | < 4.70 | 4.70 to 5.70 |  |  |  |
| COCCN(Cc1c(-c2ccccc2)noc1N(C)C1CCCCC1)C(=O)c1ccccc1OC [RU-0037275] |  |  | < 25 | < 6.00 | 51 to 74 |
| COc1ccc(-c2cc(-c3ccccc3)n(C(=O)CN3CCN(Cc4ccccc4)CC3)n2)cc1 [RU-0038795] |  |  | < 25 | < 6.00 | 51 to 74 |
| COc1cccc(-c2nnc(SCCCC(=O)N3CCN(C(=O)CC(C)(C)C)C(C)C3)n2-c2ccc(C)cc2)c1 (stereo not shown) [RU-0071818] |  |  | < 25 |  | 26 to 50 |
| CCc1c(C(=O)NCc2cccnc2)cnn1-c1ccccc1 [RU-0048504] |  |  | < 25 |  | 26 to 50 |
| O=C(CCC1CCN(C(=O)c2cccc(-n3cccn3)c2)CC1)Nc1ccccc1 [RU-0032465] |  |  | 26 to 50 | < 6.00 | 51 to 74 |
| CCNc1nc(Cl)nc(NC(C)C)n1 [RU-T5] | < 4.70 | < 4.70 |  |  |  |
| Cc1ccc(-c2nnc(SCCCC(=O)N3CCN(C(=O)c4cccc(F)c4)C(C)C3)n2-c2ccc(C)cc2)cc1 (stereo not shown) [RU-0071789] |  |  | < 25 |  | 26 to 50 |
| CSc1nc(NC(C)C)nc(NC(C)C)n1 [RU-T2] | < 4.70 | < 4.70 |  |  |  |
| Cc1cccc(Cn2ccnc2CN(C(=O)c2ccccc2F)C2CCCCC2)c1 [RU-0047851] |  |  | < 25 |  | 26 to 50 |
| COc1ccc(-n2c(Cc3ccccc3)nnc2SCCCC(=O)N2CCN(C(=O)c3ccc(C(F)(F)F)cc3)C(C)C2)cc1 (stereo not shown) [RU-0071828] |  |  | < 25 |  | 26 to 50 |
| CCN(CC)C(=O)c1cccc(C)c1 [DEET, N,N-diethyl-m-toluamide, reference compound] | < 4.70 | < 4.30 |  |  |  |
| O=C(NCCC(=O)N1CCOC(COCc2ccc(F)cc2Cl)C1)OCc1ccccc1 (stereo not shown) [RU-0050344] |  |  | < 25 |  | 26 to 50 |
| COCCN(Cc1c(-c2ccccc2)noc1N1CCSCC1)CC(O)COCc1ccco1 (stereo not shown) [RU-0037278] |  |  | < 25 | < 6.00 | 51 to 74 |
| COc1ccccc1CC(=O)N1CCOC(COc2ccc(C)cc2)C1 (stereo not shown) [RU-0050390] |  |  | < 25 |  | 26 to 50 |
| CN(Cc1nccn1Cc1c(F)cccc1Cl)C(=O)C1CCCC1 [RU-I5] | < 4.70 | 4.30 to 4.70 |  |  |  |
| O=C(C1CCC1)N(Cc1ccco1)Cc1nccn1Cc1ccccc1Cl [RU-0048066] |  |  | < 25 |  | 26 to 50 |
| Cc1ccccc1C(=O)N[C@@H]1CCCCC1NC(=O)C1CCN(C(=O)C23CC4CC(CC(C4)C2)C3)CC1 (stereo partly shown) [RU-0045351] |  |  | < 25 |  | 26 to 50 |
